Where a name gives a salt, the structure may show the parent alone.

By IC50 is commonly meant the point on the concentration scale where inhibition reaches its midpoint. A lower IC50 goes with greater potency in that assay.

T1 sequence (O94759 whole entry): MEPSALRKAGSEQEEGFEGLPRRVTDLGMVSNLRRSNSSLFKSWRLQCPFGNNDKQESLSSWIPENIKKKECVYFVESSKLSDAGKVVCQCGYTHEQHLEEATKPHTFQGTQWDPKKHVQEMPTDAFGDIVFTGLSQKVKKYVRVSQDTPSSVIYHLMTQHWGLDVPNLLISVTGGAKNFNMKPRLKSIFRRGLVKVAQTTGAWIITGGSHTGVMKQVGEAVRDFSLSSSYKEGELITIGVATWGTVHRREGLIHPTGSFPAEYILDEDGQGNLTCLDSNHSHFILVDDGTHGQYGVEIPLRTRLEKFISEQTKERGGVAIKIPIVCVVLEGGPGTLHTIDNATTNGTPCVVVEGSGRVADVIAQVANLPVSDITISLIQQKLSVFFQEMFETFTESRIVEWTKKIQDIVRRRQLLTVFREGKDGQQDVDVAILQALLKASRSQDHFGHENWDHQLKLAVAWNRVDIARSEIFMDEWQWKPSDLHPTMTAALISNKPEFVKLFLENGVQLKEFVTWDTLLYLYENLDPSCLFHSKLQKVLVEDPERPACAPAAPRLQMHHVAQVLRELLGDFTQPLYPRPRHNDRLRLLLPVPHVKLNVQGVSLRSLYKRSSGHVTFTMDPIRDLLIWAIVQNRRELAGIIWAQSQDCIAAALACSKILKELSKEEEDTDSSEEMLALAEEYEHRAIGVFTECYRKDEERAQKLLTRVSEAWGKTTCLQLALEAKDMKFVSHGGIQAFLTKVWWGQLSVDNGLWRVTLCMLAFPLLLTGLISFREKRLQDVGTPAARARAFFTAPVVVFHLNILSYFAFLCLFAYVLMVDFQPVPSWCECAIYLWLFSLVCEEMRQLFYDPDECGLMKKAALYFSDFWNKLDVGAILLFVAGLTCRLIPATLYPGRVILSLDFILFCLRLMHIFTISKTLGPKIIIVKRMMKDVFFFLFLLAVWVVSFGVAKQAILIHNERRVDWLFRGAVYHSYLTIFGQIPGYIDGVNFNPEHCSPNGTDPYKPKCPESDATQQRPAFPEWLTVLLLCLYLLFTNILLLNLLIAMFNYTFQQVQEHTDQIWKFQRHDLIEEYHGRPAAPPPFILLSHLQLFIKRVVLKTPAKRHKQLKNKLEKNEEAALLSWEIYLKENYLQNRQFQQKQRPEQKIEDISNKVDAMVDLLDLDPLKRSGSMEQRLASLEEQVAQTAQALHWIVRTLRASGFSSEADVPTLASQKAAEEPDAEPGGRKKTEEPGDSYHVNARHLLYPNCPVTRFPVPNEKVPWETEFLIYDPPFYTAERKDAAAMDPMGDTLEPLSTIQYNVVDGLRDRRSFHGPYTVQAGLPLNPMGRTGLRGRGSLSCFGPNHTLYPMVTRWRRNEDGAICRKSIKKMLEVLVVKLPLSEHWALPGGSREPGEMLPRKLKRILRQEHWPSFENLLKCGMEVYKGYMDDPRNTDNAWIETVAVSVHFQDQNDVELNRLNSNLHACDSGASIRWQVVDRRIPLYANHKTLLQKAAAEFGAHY

This assay addresses T1, human TRPM2 channels (Homo sapiens, UniProt O94759).
T1 construct: expressed in transfected cells
The assay is described as follows: whole cell patch clamp, inhibition of TRPM2 channel current. The assay is classed as cell-based. The note with it: HEK293 cells stably expressing human TRPM2, 500 μM ADPR. As for the experimental part:
The fused heterocyclic compound of the present invention has an inhibitory effect on the TRPM2 channel, and its pharmacological activity is measured using whole cell patch clamp technology, the corresponding steps are as follows: Incubating HEK293 cells stably expressing human TRPM2 channels in DMEM/F-12 medium containing 10% bovine serum, 50 units/mL of penicillin and […] of streptomycin under the condition of 5% CO2 and 37° C. The cells before testing are stored in the extracellular fluid (147 mM NaCl, 2 mM KCl, 1 mM MgCl2, 2 mM CaCl2, 10 mM HEPES, 13 mM glucose, pH 7.4). The electrode is filled with the electrode internal solution (147 mM NaCl, 0.05 mM EGTA, 1 mM MgCl2, 10 mM HEPES, 0.5 mM ADPR, pH=7.3), and the resistance is maintained at 3-5 M Ω. Administering ADPR into cells through electrodes, and detecting the ADPR concentration used to activate TRPM2 as 500 μM, when detecting a stable current, perfusing the corresponding concentration of fused heterocyclic compound II-1 into the extracellular fluid for at least 60 seconds. record the change in current magnitude using voltage ramp mode, changing the voltage from −100 mV to+100 mV within 500 ms, with a normal clamp voltage of 0 mV and a TRPM every 5 seconds; finally, replacing the extracellular fluid with a solution with pH=5.0 to block the TRPM2 current, the electrophysiological current test results obtained are shown in Table 1, and the electrophysiological current graph obtained is shown in FIG. 1. Similarly, administering corresponding concentrations of other fused heterocyclic compounds (II-2˜II-54, III-1˜III-11) into the extracellular fluid, taking electrophysiological tests using the same method, the results are shown in Table 1. The electrophysiological representative current graphs of some fused heterocyclic compounds (II-9, II-19, and II-36) inhibiting TRPM2 channel current are shown in FIG. 1.
In turn, `CCOC(=O)c1cc(C(O)c2ccccc2)n2cccc2c1` (centres unmarked) [II-41] gave a 50% inhibitory concentration (IC50) of 10 to 20 µM.

Take `CCN(CC)C(=O)c1cc(C(OC(C)=O)c2ccccc2)n2cccc2c1` (centres unmarked) [II-50]: the 50% inhibitory concentration (IC50) lay within 10 to 20 µM.

In the case of `CCOC(=O)c1cc(C(=O)c2ccco2)n2cccc2c1` [II-14, 5-(furan-2-carbonyl) indolizine-7-ethyl carboxylate], the IC50 lay within 1 to 10 µM.

The molecule `CCCOC(=O)c1cc(C(=O)c2ccccc2)n2cccc2c1` [II-2, 5-benzoimide 7-carboxypropyl ester] returned an IC50 of 1 to 10 µM.

In turn, `COC(=O)c1cc(C(=O)c2cccs2)n2cccc2c1` [II-15, 5-(thiophen-2-carbonyl)indolizine-7-methyl carboxylate] displayed an IC50 of 10 to 20 µM.

The molecule `O=C(O)c1cc(C(O)c2ccccc2)n2cccc2c1` (centres unmarked) [II-42] displayed an IC50 of 10 to 20 µM.

For `O=C(c1ccccc1)c1cc(C(=O)N2CCNCC2)cc2cccn12` [II-29, (5-benzoyl indolizine-7-yl) (piperazin-1-yl) ketone], the IC50 lay within 20 to 50 µM.

As for `CCCC(=O)OC(c1ccccc1)c1cc(C(=O)OCC)cc2cccn12` (centres unmarked) [II-48], the IC50 was 10 to 20 µM.

Molecule `CCCC(=O)OC(c1ccccc1)c1cc(C(=O)N(CC)CC)cc2cccn12` (centres unmarked) [II-51] came in with a concentration for half-maximal inhibition (IC50) of 20 to 50 µM.

`CON(C)C(=O)c1cc(C(=O)c2ccccc2)n2cccc2c1` [II-25, 5-Benzoyl-N-methoxy-N-methylindolizine-7-formamide] had an IC50 of 1 to 10 µM.

`CCOC(=O)c1cc(C(OC)c2ccccc2)n2cccc2c1` (centres unmarked) [II-53] displayed a half-maximal inhibitory concentration (IC50) of 1 to 10 µM.

`CCN(CC)C(=O)c1cc(C(=O)c2ccccc2)n2ccnc2c1` [III-8, 5-Benzoyl-N,N-diethylimidazole[1,2-a]pyridine-7-formamide] gave an IC50 of 10 to 20 µM.

Consider `CCOC(=O)c1cc(C(=O)c2ccc(F)cc2)n2cccc2c1` [II-5, 5-(4-fluorobenzoyl) indolizinee-7-ethyl carboxylate], for which the IC50 is 10 to 20 µM.

`O=C(c1ccccc1)c1cc(C(=O)N2CCOCC2)cc2cccn12` [II-30, (5-benzimide-7-yl) (morphyryl) ketone] registered an IC50 of 20 to 50 µM.

Regarding `CCNC(=O)c1cc(C(=O)c2ccccc2)n2ccnc2c1` [III-7, 5-benzoyl-N-ethylimidazolo[1,2-a]pyridine-7-formamide], the 50% inhibitory concentration (IC50) lay within 1 to 10 µM.

Turning to `CCOC(=O)c1cc(C(=O)c2ccccn2)n2cccc2c1` [II-18, 5-methylpyridinimide-7-ethyl carboxylate], the concentration for half-maximal inhibition (IC50) is 1 to 10 µM.

On to `O=C(c1ccccc1)c1cc(C(=O)N2CCCC2)cc2cccn12` [II-27, (5-benzoimide 7-yl) (pyrrolidine-1-yl) ketone], for which the half-inhibitory concentration (IC50) lay within 10 to 20 µM.

As to `CC(=O)c1cc(C(=O)c2ccccc2)n2cccc2c1` [II-3, 1-(5-Benzimide-7-yl) ethane-1-ketone], the 50% inhibitory concentration (IC50) is 10 to 20 µM.

For `CCOC(=O)c1cc(C(OC(C)=O)c2ccccc2)n2cccc2c1` (centres unmarked) [II-47, 5-(acetoxy (phenyl)methyl) indolizine-7-ethyl carboxylate], the IC50 fell in the range of 10 to 20 µM.

`CCOC(=O)c1cc(C(O)c2ccccc2)n2ccnc2c1` (centres unmarked) [III-11, 5-(hydroxy (phenyl)methylimidazolo [1,2-a]pyridine-7-ethyl carboxylate] registered an IC50 of 20 to 50 µM.

`CCOC(=O)c1cc(C(=O)c2cccc(Br)c2)n2cccc2c1` [II-10, 5-(3-bromobenzoyl) indolizine-7-Ethyl carboxylate] returned an IC50 of 1 to 10 µM.

Consider “5-((octanyloxy) (phenyl) methyl) indolizine-7-ethyl carboxylate [II-49]”, for which the concentration for half-maximal inhibition (IC50) lay in the range of 20 to 50 µM.

`O=C(O)c1cc(C(=O)c2ccccc2)n2cccc2c1` [II-19, 5-benzimide-7-carboxylic acid]: the IC50 was in the range of 10 to 20 µM.

`CN1CCN(C(=O)c2cc(C(=O)c3ccccc3)n3cccc3c2)CC1` [II-31, (5-Benzimide-7-yl) (4-methylpiperazin-1-yl) ketone] came in with an IC50 of 10 to 20 µM.

On to `COC(=O)c1cc(C(=O)c2ccc(F)cc2)n2cccc2c1` [II-4, 5-(4-Fluorobenzoyl) indolizine-7-methyl carboxylate], for which the half-maximal inhibitory concentration (IC50) was 10 to 20 µM.

In turn, `COC(=O)c1cc(C(=O)c2ccc(C)cc2)n2ccnc2c1` [III-3, 5-(4-methylbenzoyl) imidazolo [1,2-a]pyridine-7-methyl carboxylate] registered a half-inhibitory concentration (IC50) of 10 to 20 µM.

On to `O=C(c1ccccc1)c1cc(C(=O)N2CCCCC2)cc2nccn12` [III-10, (5-benzimidazole[1,2-a]pyridine-7-yl) (piperidin-1-yl) ketone], for which the IC50 lay within 10 to 20 µM.

With `CN(C)C(=O)c1cc(C(=O)c2ccccc2)n2ccnc2c1` [III-6, 5-Benzoyl-N,N-dimethylimidazole[1,2-a]pyridine-7-formamide], the IC50 fell in the range of 10 to 20 µM.

The molecule `CCOC(=O)c1cc(C(=O)c2cccc(F)c2)n2cccc2c1` [II-7, 5-(3-fluorobenzoyl)indolizine-7-ethyl carboxylate] registered a concentration for half-maximal inhibition (IC50) of 1 to 10 µM.

Molecule `COC(=O)c1cc(C(=O)c2cccc(F)c2)n2cccc2c1` [II-6, 5-(3-Fluorobenzoyl)indolizine-7-methyl carboxylate] yielded a concentration for half-maximal inhibition (IC50) of 1 to 10 µM.

Molecule `NC(=O)c1cc(C(=O)c2ccccc2)n2cccc2c1` [II-20, 5-benzimide-7-formamide] showed a half-maximal inhibitory concentration (IC50) of 10 to 20 µM.

`CCNC(=O)c1cc(C(=O)c2ccccc2)n2cccc2c1` [II-21, 5-benzoyl-N-ethylindolizine-7-formamide]: the IC50 was in the range of 10 to 20 µM.

Consider `O=C(c1ccccc1)c1cc(C(=O)N2CCNCC2)cc2cccn12` [II-37, (5-Benzimide-7-yl) (piperazin-1-yl) ketone hydrochloride], for which the IC50 lay in the range of 10 to 20 µM.

`CCN(C)C(=O)c1cc(C(O)c2ccccc2)n2cccc2c1` (centres unmarked) [II-46, N-ethyl-5-(hydroxy(phenyl)methyl)-N-methylindolizine-7-formamide] came in with a half-inhibitory concentration (IC50) of 10 to 20 µM.

As to `CN(C)C(=O)c1cc(C(O)c2ccccc2)n2cccc2c1` (centres unmarked) [II-44, 5-(hydroxy(phenyl)methyl)-N, N-dimethylindolizine-7-formamide], the IC50 is 10 to 20 µM.

Take `O=C(O)c1cc(C(=O)c2ccccc2)n2ccnc2c1` [III-5, 5-benzimide azo [1,2-a]pyridine-7-carboxylic acid]: the IC50 was in the range of 10 to 20 µM.

`O=C(c1ccccn1)c1cc(C(=O)N2CCNCC2)cc2cccn12` [II-36, (5-Pyridinyllin-2-yl) (Piperazin-1-yl) Methylketone] showed a half-inhibitory concentration (IC50) of 20 to 50 µM.

`CCOC(=O)c1cc(C(=O)c2ccccc2)n2ccnc2c1` [III-4, 5-benzimidazolo[1,2-a]pyridine-7-ethyl carboxylate] returned an IC50 of 10 to 20 µM.

Source of the values: patent publication US20240228487A1, “FUSED HETEROCYCLIC COMPOUND AND APPLICATION THEREOF, PHARMACEUTICAL COMPOSITIONS CONTAINING SAME AND APPLICATION THEREOF” (ZHEJIANG UNIVERSITY, priority 2021, published 2024).
